{"source": "paper PMC11106165", "about": "“Repurposing the KCa3.1 Blocker Senicapoc for Ischemic Stroke” (Translational Stroke Research, 2023)", "key": {"[1]": {"test_system": "male C57BL/6 J mice, tMCAO", "experiment": "RT-qPCR of inflammatory markers in brain on day 8 after tMCAO", "format": "in vivo, mouse", "description": "After MRIs were completed, mice were euthanized with an overdose of isoflurane, brains harvested, split into ipsilateral and contralateral hemispheres, and immediately frozen with liquid N2. Brain hemispheres were homogenized in mortar and pestles with liquid N2. RNA was extracted from brain homogenates (Fig. 7b) or MMC cell pellets (Fig. 2) with Trizol (ThermoFisher, Catalog # 15,596,026) according to the manufacturer’s protocol. RNA purity and concentration were assessed using a Nanodrop Spectrophotometer ND-1000 (Marshall Scientific). The 260 nm/280 nm absorption ratios for the samples ranged from 1.95 to 2.00. Subsequently, a cDNA library was made with a High-Capacity cDNA Reverse Transcription Kit (ThermoFisher Scientific, Catalog# 4,374,967), with 2 µg of total RNA per […]. Reactions were carried out in a PTC-200 Peltier Thermal Cycler; the conditions were as follows: 25 °C for 10 min, 37 °C for 120 min, 85 °C for 5 min, with final storage at 4 °C. RT-qPCR reactions were conducted in an Applied Biosystems Viia7 Real-Time PCR System using Maxima SYBR Green/ROX qPCR Master Mix (ThermoFisher Scientific, Catalog #K022) and with the recommended three-step cycling protocol. All CT values were normalized to the geometric mean of three housekeeping genes, β-actin, GAPDH, and 18S, as recommended by Vandesompele et al.. Fold change was calculated by the ∆∆Ct method. Primer sequences are provided in Supplementary Table 1. For brain samples, relative mRNA levels were generated by normalizing to sham.\nStatistical analysis of infarct percentage comparing two groups was performed using unpaired t-test. Statistical analysis of three groups (e.g., vehicle vs senicapoc 10 mg/kg vs senicapoc 40 mg/kg) was performed with analysis of variance (ANOVA) with a post hoc pair-wise comparison using Tukey’s test (Origin software), as previously described. All data are shown as box-and-whisker plots with an overlay of the individual animal data. The boxes show mean ± S.E.M, and the whiskers show confidence intervals. The categorical neurological scoring data in Fig. 3 b is shown as a scatter plot without means or S.E.M and was analyzed with the Mann–Whitney U test as per recommendations for optimal presentation and analysis of non-parametric data in pre-clinical stroke studies by Dirnagl. For the IHC data in Fig. 5 comparing two groups, unpaired t-tests were performed. The brain qPCR data in Fig. 7 was analyzed in Prism using one-way ANOVA followed by Dunnett’s test to correct for multiple comparisons. For all statistical testing, P < 0.05 was used as the level of significance. * = P < 0.05, ** = P < 0.01, *** = P < 0.001."}, "[2]": {"test_system": "male C57BL/6 J mice, tMCAO", "experiment": "tMCAO (60 min) in mice, infarct area by T2-weighted MRI", "format": "in vivo, mouse", "description": "Reversible focal cerebral ischemia was induced by occlusion of the left middle cerebral artery (MCA) according to the classic filament method of Zea Longa as previously described for mice by our laboratory. All surgeries were performed in the MicroSurgery Core of the UC Davis School of Medicine by a microsurgeon with 20 years of surgical experience using a silicone rubber-coated nylon monofilament with a tip diameter of 0.21 ± 0.02 mm (No. 702112PK5Re, Doccol Corporation). Anesthesia was induced with 5% isoflurane and then maintained with 0.5 to 1.5% isoflurane in medical pure oxygen administered through a facemask. To assure consistent and continuous reduction of cerebral blood flow (CBF), a laser Doppler (Moor Instruments: MOORVMS-LDF) probe adapter was affixed to the surface of the skull over the brain area supplied by the MCA using dental cement. The probe remained in place throughout the MCAO surgery and CBF was measured continuously to confirm occlusion and later establishment of reperfusion. Animals were kept under anesthesia and body temperature was monitored throughout the whole procedure and maintained at > 36.5 °C using a feedback-controlled heating pad. Following 60 min of MCAO, the filament was withdrawn to allow reperfusion. Blood flow measurements were continued for another 15 min before removing the adapter and the laser Doppler probe. Animals received subcutaneous Buprenex at 0.02 mg/kg every 12 h to limit post-surgical pain for 24 h after surgery. The survival rate was 93%. […] In this study, out of the animals surviving to day 8 (45 out of 48), two animals were excluded because they lacked an obvious neurological deficit score at 12 h. Animals that met inclusion criteria were assigned to the 3 groups (low- and high-dose senicapoc or vehicle) based on a computer-generated randomization scheme. […]\nInfarct volume was evaluated with T2-weighted MRI imaging in the Nuclear Magnetic Resonance Facility at UC Davis. […] The multi-slice multi-echo (sequence (TE:56 ms; TR: 1681.2 ms) was used to acquire images of 7 coronal sections with 1-mm thickness from the junction of olfactory bulb and cortex. The infarct area was analyzed with Adobe Photoshop Elements by an investigator blinded to the treatments. On day 3, infarct area was corrected for edema and calculated with the equation: (L − N)/L × 100%; L, left (contralateral) hemisphere area; N, non-infarcted tissue area in the ipsilateral hemisphere. By day 8 post tMCAO, there typically is either only minimal or no associated cerebral edema, so no correction for edema is required and the percentage of infarcted area was calculated with the equation: (Infarct Area/Ipsilateral Hemisphere Area) × 100%."}, "[3]": {"test_system": "patients with sickle cell disease and healthy volunteers", "conditions": "cited from earlier work"}, "[4]": {"conditions": "fold-change relative to sham, day 8, adjusted P 0.01"}, "[5]": {"conditions": "fold-change relative to sham, day 8, adjusted P <0.001"}}}
{"smiles": "NC(=O)C(c1ccccc1)(c1ccc(F)cc1)c1ccc(F)cc1", "note": "[senicapoc]", "values": [{"measurement": "expression of IL-1β, TNF-α, IL-6, CD68, NLRP3, IL-2, IFN-γ, IL-4 and IL-10 in the infarcted hemisphere", "setting": "[1]; 40 mg/kg started 3 h, day 8, vs vehicle", "result": "significantly reduced"}, {"measurement": "il1b mRNA, Mean Diff. vehicle-treated ipsi vs senicapoc-treated ipsi", "setting": "[1]; fold-change relative to sham, day 8, 40 mg/kg started 3 h, adjusted P <0.001", "result": 3.115}, {"measurement": "tgfb mRNA, Mean Diff. vehicle-treated ipsi vs senicapoc-treated ipsi", "setting": "[1]; fold-change relative to sham, day 8, adjusted P 0.003", "result": 2.876}, {"measurement": "il4 mRNA, Mean Diff. vehicle-treated ipsi vs senicapoc-treated ipsi", "setting": "[1]; [4]", "result": 2.833}, {"measurement": "nlrp3 mRNA, Mean Diff. vehicle-treated ipsi vs senicapoc-treated ipsi", "setting": "[1]; [4]", "result": 4.839}, {"measurement": "inos mRNA, Mean Diff. vehicle-treated ipsi vs senicapoc-treated ipsi", "setting": "[1]; fold-change relative to sham, day 8, adjusted P 0.48", "result": 6.938}, {"measurement": "bdnf mRNA, Mean Diff. vehicle-treated ipsi vs senicapoc-treated ipsi", "setting": "[1]; fold-change relative to sham, day 8, adjusted P 0.79", "result": -11.09}, {"measurement": "il17a mRNA, Mean Diff. vehicle-treated ipsi vs senicapoc-treated ipsi", "setting": "[1]; fold-change relative to sham, day 8, adjusted P 0.98", "result": 0.3131}, {"measurement": "cd68 mRNA, Mean Diff. vehicle-treated ipsi vs senicapoc-treated ipsi", "setting": "[1]; [5]", "result": 12.76}, {"measurement": "ifng mRNA, Mean Diff. vehicle-treated ipsi vs senicapoc-treated ipsi", "setting": "[1]; [5]", "result": 8.327}, {"measurement": "il2 mRNA, Mean Diff. vehicle-treated ipsi vs senicapoc-treated ipsi", "setting": "[1]; [5]", "result": 10.6}, {"measurement": "il6 mRNA, Mean Diff. vehicle-treated ipsi vs senicapoc-treated ipsi", "setting": "[1]; [5]", "result": 7.107}, {"measurement": "il10 mRNA, Mean Diff. vehicle-treated ipsi vs senicapoc-treated ipsi", "setting": "[1]; [5]", "result": 13.82}, {"measurement": "tnfa mRNA, Mean Diff. vehicle-treated ipsi vs senicapoc-treated ipsi", "setting": "[1]; [5]", "result": 6.221}, {"measurement": "T2-weighted lesion area", "setting": "[2]; 10 mg/kg IP twice daily started 12 h after reperfusion, day 8, n = 7, vehicle 20.5 ± 1.3%", "result": "11.6 ± 1.1", "unit": "%"}, {"measurement": "T2-weighted lesion area", "setting": "[2]; 40 mg/kg IP twice daily started 12 h after reperfusion, day 8, n = 7, vehicle 20.5 ± 1.3%", "result": "9.3 ± 1.3", "unit": "%"}, {"measurement": "T2-weighted lesion area", "setting": "[2]; 40 mg/kg started 3 h after tMCAO, day 3, n = 8, P = 0.199, vehicle 21.4 ± 2.3%", "result": "16.1 ± 3.1", "unit": "%"}, {"measurement": "T2-weighted lesion area", "setting": "[2]; 40 mg/kg started 3 h after tMCAO, day 8, n = 8, P = 0.0318, vehicle 16.6 ± 1.0%", "result": "11.7 ± 1.8", "unit": "%"}, {"measurement": "hemolysis, hematocrit and hemoglobin levels in phase II study", "setting": "[3]; 10 mg/day, double-blind placebo-controlled", "result": "reduced hemolysis and significantly increased hematocrit and hemoglobin levels"}, {"measurement": "phase III endpoint: reduction in number of vaso-occlusive pain crises", "setting": "[3]", "result": "did not meet the set clinical endpoint"}, {"measurement": "tolerability in dose escalating phase I clinical trials", "setting": "[3]; healthy volunteers and patients with sickle cell disease", "result": "well tolerated"}]}
